In brackets after ≈: the same amount, converted by molar mass. Like-named read-outs stand apart in the source and are kept apart here.
Legend:
[1] = Antimicrobial activity of decomposition product; format: cell-based
Description: It has also been discovered that the compounds of the present invention may degrade at a pH of 7 or above over an extended time period to compounds which are less antimicrobially active than the original compounds of the present invention.

[2] = test system: Bacillus subtilis (Bs); experiment: MIC in nutrient agar, Bacillus subtilis; format: cell-based, Bacillus subtilis ATCC 8473; details: Bacillus subtilis
Protocol: (§1) The minimum inhibitory concentration (MIC) for the compounds listed in Table I is determined for 9 bacteria, using nutrient agar, and 7 yeast and fungi, using malt yeast agar. A one percent solution of the test compound is prepared in a mixture of acetone and water. Nutrient agar is prepared at pH 6.8, representing a neutral medium, and at pH 8.2, representing an alkaline medium. The nutrient agars are prepared by adding 23 g of nutrient agar to one-liter of deionized water. In addition, the alkaline medium is prepared by adjusting a 0.04M solution of N-[tris-(hydroxymethyl)methyl]-glycine buffered deionized water with concentrated sodium hydroxide to a pH of […]. Malt yeast agar is prepared by adding 3 g yeast extract and 45 g malt agar per liter of deionized water. The specific agar is dispensed in 30 ml aliquots into 25×200 mm test tubes, capped and autoclaved for 15 minutes at 115° C. The test tubes containing the agar are cooled in a water bath until the temperature of the agar is 48° C. Then, an appropriate amount of the one percent solution of the test compound is added (except in the controls where no compound is added) to the respective test tubes so that the final concentrations are 500, 250, 100, 50, 25, 10, 5, 2.5, 1.0 and zero parts per million of the test compound in the agar, thus having a known concentration of test compound dispersed therein. The contents of the test tubes are then transferred to respective petri plates. After drying for 24 hours, the petri plates containing nutrient agar are inoculated with bacteria and those containing malt yeast agar are inoculated with yeast and fungi.
(§2) The inoculation with bacteria is accomplished by using the following procedure. Twenty-four hour-cultures of each of the bacteria are prepared by incubating the respective bacteria in tubes containing nutrient broth for 24 hours at 30° C. in a shaker. Dilutions of each of the 24 hour-cultures are made so that nine separate suspensions (one for each of the nine test bacteria) are made, each containing 10^8 colony forming units (CFU) per ml of suspension of a particular bacteria. Aliquots of 0.3 ml of each of the bacterial suspensions are used to fill the individual wells of Steer's Replicator. For each microbial suspension, 0.3 ml was used to fill three wells (i.e., three wells of 0.3 ml each) so that for the nine different bacteria, 27 wells are filled. The Steer's Replicator is then used to inoculate both the neutral and alkaline pH nutrient agar petri plates.
(§3) The inoculated petri plates are incubated at 30° C. for 48 hours and then read to determine if the test compound which is incorporated into the agar prevented growth of the respective bacteria.
(§4) Table II lists the bacteria, yeast and fungi used in the MIC test described above along with their respective American Type Culture Collection (ATCC) identification numbers.
(§5) The following MIC and MEC antimicrobial tests, whose results are shown in Tables XIII-XVII, are performed using the same methods as described hereinabove.

[3] = test system: Proteus vulgaris (Pv); experiment: MIC in nutrient agar, Proteus vulgaris; format: cell-based, Proteus vulgaris ATCC 881
Protocol: as §1, §2, §3, §4, §5

[4] = test system: Pseudomonas aeruginosa (PRD-10); experiment: MIC in nutrient agar, Pseudomonas aeruginosa PRD-10; format: cell-based, Pseudomonas aeruginosa ATCC 15442; details: Pseudomonas aeruginosa
Protocol: as §1, §2, §3, §4, §5

[5] = test system: Staphylococcus aureus (Sa); experiment: MIC in nutrient agar, Staphylococcus aureus; format: cell-based, Staphylococcus aureus ATCC 6538; details: Staphylococcus aureus
Protocol: as §1, §2, §3, §4, §5

[6] = test system: Salmonella choleraesuis (Sc); experiment: MIC in nutrient agar, Salmonella choleraesuis; format: cell-based, Salmonella choleraesuis ATCC 10708; details: Salmonella enterica, CHOLERAESUIS
Protocol: as §1, §2, §3, §4, §5

[7] = test system: Penicillium chrysogenum (Pc); experiment: MIC in malt yeast agar, Penicillium chrysogenum; format: cell-based, Penicillium chrysogenum ATCC 9480; details: read-out: Minimum Inhibitory Concentration, Pc
Protocol: as §1
(§6) The inoculation with the yeast and fungi is accomplished as follows. Cultures of yeast and fungi are incubated for seven days on malt yeast agar at 30° C. These cultures are used to prepare suspensions by the following procedure. A suspension of each organism is prepared by adding 10 ml of sterile saline and 10 microliters of octylphenoxy polyethoxy ethanol (TRITON® X-100, a trademark of Rohm & Haas Company) to the agar slant of yeast or fungi. The sterile saline/octylphenoxy polyethoxy ethanol solution is then agitated with a sterile swab to suspend the microorganism grown on the slant. Each resulting suspension is diluted into sterile saline (1 part suspension: 9 parts sterile saline). Aliquots of these dilutions are placed in individual wells of Steer's Replicator and petri plates inoculated as previously described. The petri plates are incubated at 30° C. and read after 48 hours for yeast and 72 hours for fungi.
as §4, §5

[8] = test system: Fusarium oxysporum (Fo); experiment: MIC in malt yeast agar, Fusarium oxysporum; format: cell-based, Fusarium oxysporum ATCC 48112; details: read-out: Minimum Inhibitory Concentration, Fo
Protocol: as §1, §6, §4, §5

[9] = test system: Pseudomonas aeruginosa (Pa); experiment: MIC in nutrient agar, Pseudomonas aeruginosa; format: cell-based, Pseudomonas aeruginosa ATCC 10145
Protocol: as §1, §2, §3, §4, §5

[10] = test system: Enterobacter aerogenes (Ea); experiment: MIC in nutrient agar, Enterobacter aerogenes; format: cell-based, Enterobacter aerogenes ATCC 13048; details: Klebsiella aerogenes
Protocol: as §1, §2, §3, §4, §5

[11] = test system: Candida albicans (Ca); experiment: MIC in malt yeast agar, Candida albicans; format: cell-based, Candida albicans ATCC 10231; details: read-out: Minimum Inhibitory Concentration, Ca
Protocol: as §1, §6, §4, §5

[12] = test system: Trichoderma viride (Tv); experiment: MIC in malt yeast agar, Trichoderma viride; format: cell-based, Trichoderma viride ATCC 8678; details: read-out: Minimum Inhibitory Concentration, Tv
Protocol: as §1, §6, §4, §5

[13] = test system: Aspergillus niger (An); experiment: MIC in malt yeast agar, Aspergillus niger; format: cell-based, Aspergillus niger ATCC 16404; details: read-out: Minimum Inhibitory Concentration, An
Protocol: as §1, §6, §4, §5

[14] = test system: Klebsiella pneumoniae (Kp); experiment: MIC in nutrient agar, Klebsiella pneumoniae; format: cell-based, Klebsiella pneumoniae ATCC 8308
Protocol: as §1, §2, §3, §4, §5

[15] = test system: Escherichia coli (Ec); experiment: MIC in nutrient agar, Escherichia coli; format: cell-based, Escherichia coli ATCC 11229; details: Escherichia coli
Protocol: as §1, §2, §3, §4, §5

[16] = test system: Saccharomyces cerevisiae (Sc); experiment: MIC in malt yeast agar, Saccharomyces cerevisiae; format: cell-based, Saccharomyces cerevisiae ATCC 4105; details: read-out: Minimum Inhibitory Concentration, Sc
Protocol: as §1, §6, §4, §5

[17] = test system: Aureobasidium pullulan (Ap); experiment: MIC in malt yeast agar, Aureobasidium pullulan; format: cell-based, Aureobasidium pullulan ATCC 16622; details: read-out: Minimum Inhibitory Concentration, Ap
Protocol: as §1, §6, §4, §5

## CSC(=CC#N)SC [3,3-bis(methylthio)propenenitrile]
[1]
  antimicrobial activity of decomposition product: virtually inactive as an antimicrobial

## CS/C=C(/Cl)C#N [Compound H, E isomer of 2-chloro-3-(methylthio)-2-propenenitrile]
[2]; pH 6.8, read-out: Minimum Inhibitory Concentration, Bs
  MIC: > 500 µg/mL
[2]; pH 8.2, read-out: Minimum Inhibitory Concentration, Bs
  MIC: 500 µg/mL (≈ 3.74 mM)
[3]; pH 6.8, read-out: Minimum Inhibitory Concentration, Pv
  MIC: > 500 µg/mL
[3]; pH 8.2, read-out: Minimum Inhibitory Concentration, Pv
  MIC: 250 µg/mL (≈ 1.87 mM)
[4]; pH 6.8, read-out: Minimum Inhibitory Concentration, PRD
  MIC: > 500 µg/mL
[4]; pH 8.2, read-out: Minimum Inhibitory Concentration, PRD
  MIC: 250 µg/mL (≈ 1.87 mM)
[5]; pH 6.8, read-out: Minimum Inhibitory Concentration, Sa
  MIC: > 500 µg/mL
[5]; pH 8.2, read-out: Minimum Inhibitory Concentration, Sa
  MIC: 500 µg/mL (≈ 3.74 mM)
[6]; pH 6.8, read-out: Minimum Inhibitory Concentration, Sc
  MIC: > 500 µg/mL
[6]; pH 8.2, read-out: Minimum Inhibitory Concentration, Sc
  MIC: 500 µg/mL (≈ 3.74 mM)
[7]
  MIC: 100 µg/mL (≈ 0.748 mM)
[8]
  MIC: 100 µg/mL (≈ 0.748 mM)
[9]; pH 6.8, read-out: Minimum Inhibitory Concentration, Pa
  MIC: > 500 µg/mL
[9]; pH 8.2, read-out: Minimum Inhibitory Concentration, Pa
  MIC: 250 µg/mL (≈ 1.87 mM)
[10]; pH 6.8, read-out: Minimum Inhibitory Concentration, Ea
  MIC: > 500 µg/mL
[10]; pH 8.2, read-out: Minimum Inhibitory Concentration, Ea
  MIC: 500 µg/mL (≈ 3.74 mM)
[11]
  MIC: 250 µg/mL (≈ 1.87 mM)
[12]
  MIC: 250 µg/mL (≈ 1.87 mM)
[13]
  MIC: 250 µg/mL (≈ 1.87 mM)
[14]; pH 6.8, read-out: Minimum Inhibitory Concentration, Kp
  MIC: > 500 µg/mL
[14]; pH 8.2, read-out: Minimum Inhibitory Concentration, Kp
  MIC: 500 µg/mL (≈ 3.74 mM)
[15]; pH 6.8, read-out: Minimum Inhibitory Concentration, Ec
  MIC: > 500 µg/mL
[15]; pH 8.2, read-out: Minimum Inhibitory Concentration, Ec
  MIC: 500 µg/mL (≈ 3.74 mM)
[16]
  MIC: 500 µg/mL (≈ 3.74 mM)
[17]
  MIC: 250 µg/mL (≈ 1.87 mM)

Source: US5198445A, “Composition and use of substituted 3-thio-2-propynenitriles as industrial antimicrobials” (The Dow Chemical Company, priority 1992, dated 1993)
